Results from patent publication US20120095055A1, “HEXAHYDROCYCLOPENTYL[f]INDAZOLE 5-HYDROXYMETHYL ETHANOLS AND DERIVATIVES THEREOF AS SELECTIVE GLUCOCORTICOID RECEPTOR MODULATORS” (Merck Sharp & Dohme, Corp., priority 2009, published 2012).

Target: T1, human GR (Homo sapiens, UniProt P04150)
T1 construct: naturally expresses the human GR; endogenous in cells
T1 sequence (P04150 1-777): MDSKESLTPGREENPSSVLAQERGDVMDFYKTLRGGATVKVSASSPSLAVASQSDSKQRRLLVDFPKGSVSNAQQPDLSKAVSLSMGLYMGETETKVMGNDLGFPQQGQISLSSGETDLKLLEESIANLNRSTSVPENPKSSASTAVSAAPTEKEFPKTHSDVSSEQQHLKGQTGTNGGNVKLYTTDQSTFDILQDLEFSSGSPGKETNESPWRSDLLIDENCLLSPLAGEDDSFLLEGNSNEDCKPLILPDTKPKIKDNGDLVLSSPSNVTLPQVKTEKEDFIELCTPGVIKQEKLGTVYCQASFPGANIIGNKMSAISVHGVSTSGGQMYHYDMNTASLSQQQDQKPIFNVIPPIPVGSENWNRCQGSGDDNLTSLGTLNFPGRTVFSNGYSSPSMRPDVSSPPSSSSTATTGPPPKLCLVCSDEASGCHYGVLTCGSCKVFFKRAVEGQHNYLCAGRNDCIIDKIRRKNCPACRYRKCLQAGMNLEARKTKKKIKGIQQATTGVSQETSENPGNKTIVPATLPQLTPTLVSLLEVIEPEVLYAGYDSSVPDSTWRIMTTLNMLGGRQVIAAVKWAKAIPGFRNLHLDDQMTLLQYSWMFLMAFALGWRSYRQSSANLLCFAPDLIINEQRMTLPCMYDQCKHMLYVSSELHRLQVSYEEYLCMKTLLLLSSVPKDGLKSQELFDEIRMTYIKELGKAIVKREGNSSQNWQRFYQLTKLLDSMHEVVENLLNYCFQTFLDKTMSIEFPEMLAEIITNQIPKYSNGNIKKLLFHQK
Test: Transrepression Assay (GITAR), TNFα-β-lactamase reporter in U937 cells
Assay type: cell-based
Details: for Transrepression U937 Cells GITAR Emax (%): activity repressed by 100 nM dexamethasone set as 100%; for EC50: inflection point (IP), TNFα promoter β-lactamase reporter, PMA/LPS; for Emax: U-937, activity repressed by 100 nM dexamethasone set as 100%
From the text: This assay assesses the ability of test compounds to control transcription from the TNFα-β-lactamase reporter gene in U937 cells, a human myelomonocytic leukemia cell line that naturally expresses the human GR. The assay measures compound dependent-repression of the TNFa promoter linked to a reporter gene.
The human U937 cells that had been stablely transfected with the TNF-α promoter driving β-lactamase are used for this assay. U937 cells contain an endogenous glucocorticoid receptor (GR). Cells are maintained in RPMI 1640 Growth medium (Gibco Cat#11875-093) containing 25 mM HEPES, 10% FBS, 2 mM L-Glutamine, 1 mM Sodium pyruvate, 25 μg/ml Gentamicin (Gibco Cat#15710-064), 1:1000 2-Mercaptoethanol (Gibco Cat#21985-023) and 0.8 mg/ml G418 (Gibco Cat#10131-027). The density of the cells in the flask needs to be about 1×106-3×10^6/ml at the time of harvest. Usually, the cells are split to 1.2˜1.4×10^5/ml (1:10) 3 days prior to the assay. 50,000 cells/well are plated in 96 well black-walled plates the day of assay. Test compounds are added 10 μL/well, and cells are incubated at 37° C. for 30˜45 min. For assaying compounds, first dilute 1:10 in DMSO to make 1 mM, then further dilute 1:100 in medium to make 10× stock prior to adding to the cells. Add 50 ng/ml PMA (Sigma, cat# P8139) 10 μL/well to a final concentration 5 ng/ml, and 1 μg/ml LPS (Sigma, cat# L4130) 10 μL/well to a final concentration 100 ng/ml. Incubate cells at 37° C. overnight for ˜18 hr. PMA is stored frozen as 100 μg/ml stock in DMSO. Dilute 1:10 in DMSO for a working stock of 10 μg/ml and store at −20 C. For assaying, dilute the 10 μg/ml working stock 1:200 in medium to make a 10× solution (50 ng/ml). Store frozen LPS at 1 mg/ml in PBS, dilute 1:1000 in medium to make 10× (1 μg/ml) for the assay. Add 6× loading buffer (CCF2-AM) 20 μL/well, and incubate at room temperature for 70˜90 min. […] The activity repressed by 100 nM dexamethasone alone is set as 100% activity.

Structure (SMILES)	Transrepression U937 Cells GITAR Emax (%)	EC50 [µM]	Emax [%]
C[C@]12Cc3cnn(-c4ccccc4)c3C=C1CC[C@@]2(CO)CC(O)c1ccccn1 (single isomer, unassigned) [Example 23b]	83.7	0.0496	–
COc1cccnc1C(O)C[C@]1(CO)CCC2=Cc3c(cnn3-c3cccc(F)c3)C[C@@]21C (single isomer, unassigned) [Example 26b]	51.8	1.51	–
CC(O)(C[C@]1(CO)CCC2=Cc3c(cnn3-c3ccc(F)cc3)C[C@@]21C)c1cccnc1 (single isomer, unassigned) [Example 25b]	69.8	0.186	–
C[C@]12Cc3cnn(-c4cccc(F)c4)c3C=C1CC[C@@]2(CO)CC(O)c1ccccn1 (single isomer, unassigned) [Example 19b]	86.7	0.0738	–
C[C@]12Cc3cnn(-c4ccc(F)cc4)c3C=C1CC[C@@]2(CO)CC(O)C(F)(F)F (single isomer, unassigned) [Example 28a]	–	0.0543	81.2
C[C@]12Cc3cnn(-c4ccc(F)cc4)c3C=C1CC[C@@]2(CO)CC(O)c1ccncc1 (single isomer, unassigned) [Example 17a]	–	0.0753	86.1
C[C@]12Cc3cnn(-c4ccc(F)cc4)c3C=C1CC[C@@]2(CO)CC1OC(=O)c2ccccc21 (single isomer, unassigned) [Example 12a]	–	0.0931	78.8
C[C@]12Cc3cnn(-c4ccc(F)cc4)c3C=C1CC[C@@]2(CO)CC(O)c1cccc(C(F)(F)F)c1 (single isomer, unassigned) [Example 7a]	–	0.0876	95.3
C[C@]12Cc3cnn(-c4ccc(F)cc4)c3C=C1CC[C@@]2(CO)CC(O)c1cc(F)cc(Cl)c1 (single isomer, unassigned) [Example 6a]	–	0.0357	104
C[C@]12Cc3cnn(-c4ccc(F)cc4)c3C=C1CC[C@@]2(CO)CC1OC(=O)c2ccccc21 (stereo partly drawn) [Example 11, 3-{[(4αS,5R)-1-(4-fluorophenyl)-5-(hydroxymethyl)-4α-methyl-1,4,4α,5,6,7,7a,8-octahydrocyclopenta[f]indazol-5-yl]methyl}-2-benzofuran-1(3H)-one]	–	0.241	84.6
C[C@]12Cc3cnn(-c4ccc(F)cc4)c3C=C1CC[C@@]2(CO)CC(O)c1cc(F)cc(Cl)c1 (single isomer, unassigned) [Example 6b]	98.3	0.0688	–
COc1cccnc1C(O)C[C@]1(CO)CCC2=Cc3c(cnn3-c3ccc(F)cc3)C[C@@]21C (single isomer, unassigned) [Example 21a]	–	0.101	85.4
C[C@]12Cc3cnn(-c4ccc(F)cc4)c3C=C1CC[C@@]2(CO)CC(O)c1cccnc1 (single isomer, unassigned) [Example 15a]	–	0.0563	87.7
Cc1ccc(C(O)C[C@]2(CO)CCC3=Cc4c(cnn4-c4ccc(F)cc4)C[C@@]32C)cc1 (single isomer, unassigned) [Example 2b]	–	0.235	94.4
C[C@]12Cc3cnn(-c4ccc(F)cc4)c3C=C1CC[C@@]2(CO)CC(O)C(F)(F)F (single isomer, unassigned) [Example 28b]	80.2	0.0909	–
C[C@]12Cc3cnn(-c4ccc(F)cc4)c3C=C1CC[C@@]2(CO)CC(O)C1CC1 (single isomer, unassigned) [Example 20a, 1-cyclopropyl-2-[(4αS)-1-(4-fluorophenyl)-5-(hydroxymethyl)-4α-methyl-1,4,4α,5,6,7-hexahydrocyclopenta[f]indazol-5-yl]ethanol]	–	0.133	79.9
C[C@]12Cc3cnn(-c4cccc(F)c4)c3C=C1CC[C@@]2(CO)CC(O)c1cccnc1 (single isomer, unassigned) [Example 27b]	71.9	0.334	–
COc1ccc(C(O)C[C@]2(CO)CCC3=Cc4c(cnn4-c4ccc(F)cc4)C[C@@]32C)nc1 (single isomer, unassigned) [Example 24b]	57.9	0.376	–
Cc1cccc(C(O)C[C@]2(CO)CCC3=Cc4c(cnn4-c4ccc(F)cc4)C[C@@]32C)c1 (single isomer, unassigned) [Example 5a]	–	0.0861	84.7
C[C@]12Cc3cnn(-c4ccc(F)cc4)c3C=C1CC[C@@]2(CO)CC(O)c1ccncc1 (single isomer, unassigned) [Example 17b]	83.3	0.0597	–

More lines, in order of falling EC50, values ahead:

Transrepression U937 Cells GITAR Emax (%)	EC50 [µM]	Emax [%]	Structure (SMILES)
93.0	0.0349	–	C[C@]12Cc3cnn(-c4ccc(F)cc4)c3C=C1CC[C@@]2(CO)CC1OC(=O)c2ccccc21 (single isomer, unassigned) [Example 12b]
–	0.0327	91.2	C[C@]12Cc3cnn(-c4cccc(F)c4)c3C=C1CC[C@@]2(CO)CC(O)c1ccccn1 (single isomer, unassigned) [Example 19a]
91.7	0.024	–	C[C@]12Cc3cnn(-c4ccc(F)cc4)c3C=C1CC[C@@]2(CO)CC(O)c1ccccn1 (single isomer, unassigned) [Example 1b]
–	0.0228	82.6	C[C@]12Cc3cnn(-c4ccccc4)c3C=C1CC[C@@]2(CO)CC(O)c1ccccn1 (single isomer, unassigned) [Example 23a]
–	0.0214	85.4	Cc1ccc(C(O)C[C@]2(CO)CCC3=Cc4c(cnn4-c4ccc(F)cc4)C[C@@]32C)nc1 (stereo partly drawn) [Example 16, 2-[(4αS,5R)-1-(4-fluorophenyl)-5-(hydroxymethyl)-4α-methyl-1,4,4α,5,6,7-hexahydrocyclopenta[f]indazol-5-yl]-1-(5-methylpyridin-2-yl)ethanol]
–	0.0187	90.9	C[C@]12Cc3cnn(-c4ccc(F)cc4)c3C=C1CC[C@@]2(CO)CC(O)c1ccc(F)cn1 (single isomer, unassigned) [Example 22a]
91.3	0.0187	–	COc1cccnc1C(O)C[C@]1(CO)CCC2=Cc3c(cnn3-c3ccc(F)cc3)C[C@@]21C (single isomer, unassigned) [Example 21b]
96.4	0.018	–	C[C@]12Cc3cnn(-c4ccc(F)cc4)c3C=C1CC[C@@]2(CO)CC(O)c1ccccc1 (single isomer, unassigned) [Example 13b]
–	0.0165	89.2	C[C@]12Cc3cnn(-c4ccc(F)cc4)c3C=C1CC[C@@]2(CO)CC(O)c1ncccc1F (single isomer, unassigned) [Example 10a]
90.6	0.0141	–	C[C@]12Cc3cnn(-c4ccc(F)cc4)c3C=C1CC[C@@]2(CO)CC(O)c1ccc(F)cn1 (single isomer, unassigned) [Example 22b]
99.6	0.006	–	C[C@]12Cc3cnn(-c4ccc(F)cc4)c3C=C1CC[C@@]2(CO)CC(O)c1ccccc1Cl (single isomer, unassigned) [Example 3b]
93.9	0.004	–	C[C@]12Cc3cnn(-c4ccc(F)cc4)c3C=C1CC[C@@]2(CO)CC(O)c1ncccc1F (single isomer, unassigned) [Example 10b]
